# Laboratory results as given in PMC8184751, “Proline/arginine dipeptide repeat polymers derail protein folding in amyotrophic lateral sclerosis” (Nature Communications, 2021).
# Entries after “also recorded” stand apart in the source; their conditions may differ.
# T1: RNaseT1 (Aspergillus oryzae, UniProt P00651)
# T1 construct: purchased Thermo Fischer
# T1 sequence (P00651 27-130): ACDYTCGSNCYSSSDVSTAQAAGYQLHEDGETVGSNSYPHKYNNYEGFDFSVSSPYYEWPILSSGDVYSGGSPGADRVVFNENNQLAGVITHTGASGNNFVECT
# Tests used:
# [1] = biological target: T2, PPIA (Homo sapiens, UniProt P62937); test: NMR titration of 15N-labeled PPIA with dipeptide repeat polymers (1H-15N HSQC); format: binding; settings: for Arg55 csp / Arg55 I/I0 (titration, SI Fig 2b): 40 µM 15N-PPIA; for Arg55 csp / I/I0 of the HSQC cross-peak of PPIA residue 55 (SI Fig 2a) / Arg55 I/I0 (titration, SI Fig 2b): pH 7.4, 298 K; for I/I0 of the HSQC cross-peak of PPIA residue 55 (SI Fig 2a): eightfold excess of peptide (320 µM) over 40 µM 15N-PPIA; for binding to PPIA judged from NMR signals: eightfold excess of peptide over PPIA, 1H-15N HSQC
# T2 construct: His-tag (cleaved yes); made in house; host or cells: Escherichia coli BL21(DE3)
# T2 sequence (P62937 whole entry): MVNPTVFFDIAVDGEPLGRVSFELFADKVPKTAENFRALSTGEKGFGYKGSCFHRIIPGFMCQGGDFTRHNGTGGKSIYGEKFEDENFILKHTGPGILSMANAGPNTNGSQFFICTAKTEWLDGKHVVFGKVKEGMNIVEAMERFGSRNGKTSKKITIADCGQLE
# Protocol: Titration of ^15N-labeled PPIA with dipeptide repeat polymers (PR20, GR20, GP20, AP20, PR10, PR5, and PR2) were carried out in 25 mM HEPES buffer with 100 mM NaCl, 2 mM DTT, 0.01% NaN3, and 10% D20 at pH 7.4. For 40 µM protein, the ligand concentrations were increased from 0 to 320 µM in five steps. For the PPIA/GP20 and PPIA/AP20 titrations, the concentration of the repeat polymer was further increased up to 3200 µM. Two-dimensional ^15N-^1H HSQC spectra[41] were acquired at 298 K for each PPIA/repeat polymer ratio.
# Kd calculations for the interactions of PPIA with PR repeats (PR5, PR10, and PR20) were made from the dipeptide repeat polymer-induced variations in PPIA cross-peak intensities, using the equation for slow exchange regime interactions:1 1−I/I0=Imax(Kd+P+x)−Kd+P+x^2−4×P×x/2P where I is the intensity of PPIA peaks in the presence of increasing ligand concentrations, I0 is the intensity of free protein, P is the total concentration of protein, x is the concentration of ligand, and Kd is the dissociation constant.
# The error in 1−(I/I0) is taken to be the error in the experimental quantity of I/I0 and has been calculated from the noise in HSQC spectra according to2 σI/I0=I/I0σI0/I0^2+σ(I)/I^2 where σ(I/Io) is the error in I/I0, σ(Io) and σ(I) are the noise (RMS value of background noise from various regions) in the HSQC spectrum of PPIA alone and that of PPIA in the presence of ligand, respectively.
# In case of the PPIA/GP20- and PPIA/AP20 interactions, the Kd value was calculated from the equation for fast exchange interactions using chemical shift perturbations (CSP) according to3 CSP=CSPmax(Kd+P+x)−(Kd+P+x)^2−4×P×x/2P where4 CSP=(δH)^2+δN/6.5^2
# Imax and CSPmax were treated as independent free fit parameters for the residues. The error value in the Kd is the standard error of fitting.
# [2] = biological target: PPIA; settings: read-out: binding affinity to the enzyme; cited from earlier work
# [3] = biological target: T2, PPIA; test: PPIA-catalysed refolding of urea-unfolded RNaseT1 (tryptophan fluorescence); format: biochemical
# Protocol: (§1) RNaseT1 (purchased from Thermo Fischer) was unfolded by incubating in 6.9 M urea at 10 °C for 2 h in 100 mM Tris-HCl buffer at pH 8. Refolding of RNaseT1 was initiated by diluting it 35 times with same buffer such that the final concentration of RNaseT1 was 2.27 µM and urea 0.197 M. Tryptophan fluorescence emission was measured at 320 nm (excitation wavelength = 280 nm) during refolding for 1 h on a Cary Eclipse Fluorescence Spectrophotometer at 10 °C. In experiments with PR20, PPIA, or both, they were added to the dilution buffer and incubated at 10 °C for 2 h prior to mixing. Data were normalized and averaged for graphical representation. The exponential constants, k, for the increasing fluorescence intensities were obtained from fitting a mono-exponential function to the experimental data in Graph Pad Prism.
# [4] = biological target: T1, RNaseT1; test: Refolding of RNaseT1 without PPIA (self-folding control with PR20); format: biochemical; settings: for exponential folding rate constant k of RNaseT1, no PPIA: Rnase T1:PR20=1:175, no CypA, same conditions
# Protocol: as §1
# [5] = biological target: T3, prolyl isomerase PPIA (human, UniProt P62937 2-164); test: NMR titration; 40 µM 15N-labeled PPIA titrated with GP20 or AP20 up to 3200 µM; 1H-15N HSQC at 298 K; 25 mM HEPES, 100 mM NaCl, 2 mM DTT, pH 7.4; Kd from chemical shift perturbations (equation for fast exchange); settings: both partners purified
# T3 construct: human PPIA (peptidyl-prolyl cis-trans isomerase A, cyclophilin A); gene cloned into a modified pET28a vector; 15N-labeled for the NMR titrations, unlabeled for ITC, crystallography and folding assays; source: E. coli BL21(DE3), purified (Ni-NTA, TEV cleavage, Superdex 75); 15N-labeled in M9 minimal media for NMR
# T3 sequence (P62937 2-164): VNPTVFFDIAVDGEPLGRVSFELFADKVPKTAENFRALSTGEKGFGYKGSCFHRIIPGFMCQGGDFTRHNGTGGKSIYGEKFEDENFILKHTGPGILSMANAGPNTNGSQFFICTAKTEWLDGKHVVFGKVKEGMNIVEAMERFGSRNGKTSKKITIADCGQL
# [6] = biological target: T3, prolyl isomerase PPIA; test: NMR titration; 40 µM 15N-labeled PPIA titrated with repeat polymer from 0 to 320 µM in five steps; 1H-15N HSQC at 298 K; 25 mM HEPES, 100 mM NaCl, 2 mM DTT, pH 7.4; Kd from the attenuation of the cross-peak of Arg55 (equation for slow exchange); settings: both partners purified
# [7] = biological target: T3, prolyl isomerase PPIA; test: ITC; 44 µM PPIA in the cell titrated with 650 µM PR20 in the syringe; 10 °C; 25 mM HEPES, 100 mM NaCl, 1 mM TCEP, pH 7.4; number of binding sites fixed to one; settings: both partners purified
molecule,measurement,setting,value
Ac-GPGPGPGPGPGPGPGPGPGPGPGPGPGPGPGPGPGPGPGP-NH2 [GP20],Arg55 csp,[1]; peptide conc. 32 uM,0.002383
same,Arg55 csp,[1]; peptide conc. 96 uM,0.006761
same,Arg55 csp,[1]; peptide conc. 160 uM,0.01147
same,Arg55 csp,[1]; peptide conc. 320 uM,0.01968
same,Arg55 csp,[1]; peptide conc. 640 uM,0.034
same,Arg55 csp,[1]; peptide conc. 1280 uM,0.04768
same,Arg55 csp,[1]; peptide conc. 2560 uM,0.06404
same,Arg55 csp,[1]; peptide conc. 3200 uM,0.07024
cyclosporin A,Kd,[2],0.013 ± 0.004 µM
Ac-PRPRPRPRPRPRPRPRPRPRPRPRPRPRPRPRPRPRPRPR-NH2 [PR20],I/I0 of the HSQC cross-peak of PPIA residue 55 (SI Fig 2a),[1],-0.02438
same,"Arg55 I/I0 (titration, SI Fig 2b)",[1]; ligand conc 9.6 uM,0.211
same,"Arg55 I/I0 (titration, SI Fig 2b)",[1]; ligand conc 32 uM,0.472
same,"Arg55 I/I0 (titration, SI Fig 2b)",[1]; ligand conc 96 uM,0.746
same,"Arg55 I/I0 (titration, SI Fig 2b)",[1]; ligand conc 160 uM,0.931
same,"Arg55 I/I0 (titration, SI Fig 2b)",[1]; ligand conc 320 uM,1.02
same,exponential folding rate constant k of RNaseT1,"[3]; Rnase T1:CypA:PR20=1:0.033:7, 2.27 µM RNaseT1, 100 mM Tris-HCl pH 8, 10 °C, fluorescence 320 nm, mono-exponential fit, independent experiment 1 of 3",0.2834
same,exponential folding rate constant k of RNaseT1,"[3]; Rnase T1:CypA:PR20=1:0.033:7, same conditions, independent experiment 2 of 3",0.2936
same,exponential folding rate constant k of RNaseT1,"[3]; Rnase T1:CypA:PR20=1:0.033:7, same conditions, independent experiment 3 of 3",0.3078
same,exponential folding rate constant k of RNaseT1,"[3]; Rnase T1:CypA:PR20=1:0.033:20, 2.27 µM RNaseT1, pH 8, 10 °C, mono-exponential fit, independent experiment 1 of 3",0.2235
same,exponential folding rate constant k of RNaseT1,"[3]; Rnase T1:CypA:PR20=1:0.033:20, same conditions, independent experiment 2 of 3",0.3061
same,exponential folding rate constant k of RNaseT1,"[3]; Rnase T1:CypA:PR20=1:0.033:20, same conditions, independent experiment 3 of 3",0.2847
same,exponential folding rate constant k of RNaseT1,"[3]; Rnase T1:CypA:PR20=1:0.033:46, 2.27 µM RNaseT1, pH 8, 10 °C, mono-exponential fit, independent experiment 1 of 3",0.2129
same,exponential folding rate constant k of RNaseT1,"[3]; Rnase T1:CypA:PR20=1:0.033:46, same conditions, independent experiment 2 of 3",0.2303
same,exponential folding rate constant k of RNaseT1,"[3]; Rnase T1:CypA:PR20=1:0.033:46, same conditions, independent experiment 3 of 3",0.2811
same,exponential folding rate constant k of RNaseT1,"[3]; Rnase T1:CypA:PR20=1:0.033:175, 2.27 µM RNaseT1, pH 8, 10 °C, mono-exponential fit, independent experiment 1 of 3",0.1927
same,exponential folding rate constant k of RNaseT1,"[3]; Rnase T1:CypA:PR20=1:0.033:175, same conditions, independent experiment 2 of 3",0.1913
same,exponential folding rate constant k of RNaseT1,"[3]; Rnase T1:CypA:PR20=1:0.033:175, same conditions, independent experiment 3 of 3",0.202
same,effect on the catalyzing effect of PPIA on RNaseT1 folding,"[3]; increasing PR20: 7, 20, 46, 175 times excess over RNaseT1",inhibited the catalyzing effect of PPIA in a dose-dependent manner
same,"exponential folding rate constant k of RNaseT1, no PPIA",[4]; independent experiment 2 of 3,0.1365
same,"exponential folding rate constant k of RNaseT1, no PPIA",[4]; independent experiment 3 of 3,0.1365
same,"refolding kinetics of RNaseT1 in the presence of PR20, no PPIA","[4]; large excess of PR20, 10 °C, pH 8",unchanged
Ac-APAPAPAPAPAPAPAPAPAPAPAPAPAPAPAPAPAPAPAP-NH2 [AP20],Arg55 csp,[1]; peptide conc. 32 uM,0.009725
same,Arg55 csp,[1]; peptide conc. 160 uM,0.03975
same,Arg55 csp,[1]; peptide conc. 320 uM,0.06372
same,Arg55 csp,[1]; peptide conc. 640 uM,0.09595
same,Arg55 csp,[1]; peptide conc. 1280 uM,0.1279
same,Arg55 csp,[1]; peptide conc. 3200 uM,0.1597
Ac-PRPRPRPRPRPRPRPRPRPR-NH2 [PR10],Kd,[1],27.1 µM
same,I/I0 of the HSQC cross-peak of PPIA residue 55 (SI Fig 2a),[1],0.1506
"PR2: two PR dipeptides, the four-residue peptide, acetylated and amidated termini (Ac-PRPR-NH2)",I/I0 of the HSQC cross-peak of PPIA residue 55 (SI Fig 2a),[1],0.9376
same,binding to PPIA judged from NMR signals,[1],does not efficiently bind; also recorded: abrogated the binding to PPIA
"GR20: 20-dipeptide glycine/arginine repeat polymer, acetylated and amidated termini",binding to PPIA judged from NMR signals,[1],does not bind to PPIA
same,"Arg55 I/I0 (titration, SI Fig 2b)",[1]; ligand conc 9.6 uM,0.0912
same,"Arg55 I/I0 (titration, SI Fig 2b)",[1]; ligand conc 32 uM,0.0182
same,"Arg55 I/I0 (titration, SI Fig 2b)",[1]; ligand conc 96 uM,-0.00762
same,"Arg55 I/I0 (titration, SI Fig 2b)",[1]; ligand conc 160 uM,0.124
same,"Arg55 I/I0 (titration, SI Fig 2b)",[1]; ligand conc 320 uM,-0.0665
Ac-PRPRPRPRPR-NH2 [PR5],Kd,[1],48.5 µM
same,I/I0 of the HSQC cross-peak of PPIA residue 55 (SI Fig 2a),[1],0.1037
Ac-GPGPGPGPGPGPGPGPGPGPGPGPGPGPGPGPGPGPGPGP-NH2 (also called glycine/proline repeat polymer; source: synthetic peptide (solid-phase peptide synthesis)) [dipeptide repeat polymer GP20],Kd,[5],1190 µM
Ac-APAPAPAPAPAPAPAPAPAPAPAPAPAPAPAPAPAPAPAP-NH2 (also called alanine/proline repeat polymer; source: synthetic peptide (solid-phase peptide synthesis)) [dipeptide repeat polymer AP20],Kd,[5],597 µM
Ac-PRPRPRPRPRPRPRPRPRPR-NH2 (source: synthetic peptide (solid-phase peptide synthesis)) [PR repeat polymer with ten PR dipeptides (PR10)],Kd,[6],27 µM
Ac-PRPRPRPRPR-NH2 (source: synthetic peptide (solid-phase peptide synthesis)) [PR repeat polymer with five PR dipeptides (PR5)],Kd,[6],49 µM
Ac-PRPRPRPRPRPRPRPRPRPRPRPRPRPRPRPRPRPRPRPR-NH2 (dipeptide repeat polymer translated from the C9orf72 hexanucleotide repeat expansion; Only eight residues of the polymer could be built in the asymmetric unit of PDB 7ABT; also called 20-dipeptide polymer PR20; 20-repeat PR polymer; source: synthetic peptide (solid-phase peptide synthesis)) [PR repeat polymer with 20 repeats (PR20)],Kd,[6],23 µM
same,Kd,[7],~50 µM
